Source: patent US5691328A, “Phosphoethanolamine conjugates of vitamin D compounds” (Clarion Pharmaceuticals Inc., priority 1996, dated 1997)
Read-outs that look alike come from different tables or passages of the source.

What was measured:
[1] = test system: PMA-Induced Inflammation in Ears of CD-1 Mice; assay: PMA-induced inflammation in mouse ears; assay type: in vivo, mouse (CD-1); conditions: 6 hours
Method: A common in vivo model for the evaluation of anti-inflammatory agents is PMA-induced inflammation in mouse ears. This method is described in "Pharmacological Methods in the Control of Inflammation", Joseph Y. Chang and Alan J. Lewis (eds), Alan R. Liss, Inc., N.Y., pp 221-223. In this assay, edema, which is a characteristic of inflammation, is quantified by determining ear thickness or ear weight approximately 6 hours after applying PMA to the ear.
1. Mice: Male CD-1, 21-24 g (Product Number 3002) obtainable from Harlan Sprague Dawley, Indianapolis, Ind., USA;
a. Prepare 0.01% (w/v) PMA in a mixture of equal volumes of acetone and ethanol;
b. Prepare 0.01% (w/v) PMA and 5% (w/v) test compound in a mixture of equal volumes of acetone and ethanol;
c. Divide 9 mice into 3 groups of 3 mice each;
d. Leave one group of mice untreated;
e. Treat the second group of mice by applying 20 μL of PMA solution to both ears using a micropipetter;
f. Treat the third group of mice by applying 20 μL of PMA solution to the right ear and 20 μL of PMA/test compound solution to the left ear;
g. Wait 6 hours and euthanize the mice in a CO2 chamber;
h. Cut the ears and punch out circles of 6-mm diameter; and
I. Measure the weight of three appropriate ear punches in the same group together.

[2] = test system: MDA-MB-231 Human Breast Cancer Cell; assay: in vitro MDA-MB-231 Human Breast Cancer Cell inhibition assay (sulforhodamine B); assay type: cell-based; conditions: at 100 μM; 48 hours; FIG. 1
From the text: FIG. 1 is a graphical representation of results from an in vitro MDA-MB-231 Human Breast Cancer Cell inhibition assay of a compound of the invention, designated CPR 2005, in comparison with vitamin D3.
(§1) 1. Human tumor cell lines, obtainable from the American Type Culture Collection (ATCC):
a. MDA-MB-231 (ATCC HTB-26): an estrogen receptor negative human breast carcinoma cell line (attachment dependent); and
a. For cell line 1-a: Dulbecco's Modified Eagle's Medium (DMEM) plus 10% Fetal Bovine Serum (FBS); and
(§2) 3. Standard protocol for culturing cell lines: in T-75 or T-150 flasks; 37° C.; 95% air, 5% CO2; 100% humidity;
a. […]
(§3) h. Read absorbance at 562 nm using a standard 96-well microtiler plate reader. Absorbance readings are linear with dye concentrations below 1.8 absorbance units. To reduce absorbance, decrease wavelength at which measurements are taken;
(§4) single point reading: the higher the absorbance, the higher the […]; […]
(§5) initial control cell number (ICCN)--no test compound present in culture medium, end point was determined at the time of treatment;
(§6) final control cell number (FCCN)--no test compound present in culture medium, end point was determined at […] after treatment;
(§7) final cell number (FCN)--test compound present in culture medium, end point was determined at 48 hours after treatment; […]
(§8) FCN=A(test compound, 48 hours)-A(Background) [formula] where A is absorbance. […]

[3] = test system: RAW 264.7 murine monocyte/macrophage line; assay: Assay for Anti-inflammatory Activity by Inhibition of Macrophage Chemiluminescence (respiratory burst, PMA-stimulated mouse macrophages); assay type: cell-based
From the text: The RAW 264.7 cell line (available from the ATCC under accession no. TIB 71) is a murine monocyte/macrophage line the cells of which show many of the differentiative functions of a macrophage. Like macrophages, the cells are capable of phagocytosis and undergo an oxidative burst (increased oxygen consumption) and production of oxygen radicals (e.g., superoxide) in response to appropriate signals. Agents that inhibit the activation of these cells in vitro, so as to inhibit the respiratory burst and corresponding production of oxygen radicals associated with the activation, are therefore inhibitors of macrophage activation and critical steps in inflammatory processes.
The respiratory burst and corresponding production of oxygen radicals that accompany macrophage activation can be measured in a variety of ways, including chemiluminescence based on the reaction of the oxygen radicals with luminol added to the culture medium (see M. A. Trush et at., 1978, "The Generation of Chemiluminescence by Phagocytic Cells." Methods in Enzymology 57: 462-494). Indeed, chemiluminescence generated from luminol in the culture medium of macrophage cell lines is recognized in the art as a marker of macrophage activation.
1. Cell line: Raw 264.7 (ATCC TIB-71, attachment dependent);
2. Culture medium: DMEM with 10% FBS;
as §2
a. Cell line is passaged when approximately 80% confluent; with trypsin (1 mg/ml) and EDTA ([…] in ca-MG free Hank's balanced salt solution); at a 1:4 to 1:5 split;
b. All procedures are performed aseptically in a class II biological safety cabinet using standard BL-2 containment procedures. In order to prevent genetic drift in stock cell lines, fresh cultures are prepared at approximately monthly intervals with cells thawed from liquid nitrogen storage.
a. After cell passage, count cells with a hemacytometer;
b. Adjust cell concentration to approximately 1,000,000 cells per mL;
c. Suspend cells in DMEM lacking phenol red and without FBS;
d. Pipette 1 mL of cell suspension into a standard luminometer cuvet (12×75), commercially obtainable from Analytical Luminescence Laboratories, San Diego, Calif., USA;
e. Add luminol to final concentration of 0.2 μM;
f. Add test compound dissolved in phosphate buffered saline (PBS), or in DMSO for the comparative compound, vitamin D3, for final concentration levels ranging from 0 to 30 μM;
g. Add 100 nanograms of phorbol myristate acetate (PMA); and
h. Wait 1 minute and read photo counts (i.e., luminescence) on a Monolight 2010 luminometer available from Analytical Luminescence Laboratories, San Diego.
Background--no test compound present; no PMA present;
Control--no test compound present;
Calculate: [formula] where L is luminescence. 6.

[4] = test system: PAM-212 Mouse Keratinocytes; assay: in vitro PAM-212 Mouse Keratinocytes inhibition assay (anti-psoriasis); assay type: cell-based; conditions: at concentrations above 30 μM, 48 hours, FIG. 3
From the text: FIG. 3 is a graphical representation of results from an in vitro PAM-212 Mouse Keratinocytes inhibition assay of a compound of the invention, designated CPR 2005, in comparison with vitamin D3.
Psoriasis is a chronic inflammatory dermatosis characterized, in part, by hyper-proliferation of keratinocytes and release of pro-inflammatory cytokines. Compounds that reduce hyperproliferation of keratinocytes in vitro are likely to have utility in the control of psoriasis.
1. Cell line: PAM-212 murine keratinocyte cell line isolated and cultivated from newborn BALB/c mice (see S. H. Yuspa et al., Cancer Research, Vol. 40, pp. 4694-4703, December, 1980) that appears to retain many characteristics of normal keratinocytes.
2. Culture medium: 1:1 DMEM and Ham's F-12 with 10% FBS.
3. Culture conditions are the same as those described in part 3 of the assay protocol for anti-tumor activity.
4. Methodology is the same as that described in part 4 of the assay protocol for anti-tumor activity, except that, with reference to part 4(b) of the assay protocol for anti-tumor activity, cell concentration in this case is adjusted to 1,000 cells per 100 μL (rather than 5,000 cells per 100 μL).
5. End point determination and analysis are as described in part 5 of the assay protocol for anti-tumor activity.

[5] = test system: HT-29 Human Colon Cancer Cells; assay: in vitro HT-29 Human Colon Cancer Cells inhibition assay (sulforhodamine B); assay type: cell-based; conditions: at concentrations above 30 μM; 48 hours; FIG. 2
From the text: FIG. 2 is a graphical representation of results from an in vitro HT-29 Human Colon Cancer Cells inhibition assay of a compound of the invention, designated CPR 2005, in comparison with Vitamin D3.
as §1
b. HT-29 (ATCC HTB-38): a human colon caminoma cell line (attachment dependent).
b. For cell line 1-b: 1:1 DMEM and Ham's F-12 (DMEM/F12) plus 10% FBS.
as §2
a. […]
as §3, §4, §5, §6, §7, §8

[6] = Mus musculus, RAW264.7, read-out: % Inhibition of Respiratory Burst

## C=C1CC[C@H](OP(=O)([O-])OCC[N+](C)(C)C)C/C1=C/C=C1\CCC[C@]2(C)[C@@H]([C@H](C)CCCC(C)C)CC[C@@H]12 [CPR 2005, (5Z,7E)-(3S)-9,10-Secocholesta-5,7,10(19)-trien-3-phosphocholine]
[1]; CPR 2005 + PMA (left ear), PMA (right ear, 30 mg), PMA both ears: left 34, right 28, untreated 12, 20 μL of 0.01% PMA / 5% (w/v) test compound
  Average Weight of Punched Ear, left ear: 15 mg
[1]; topical, 5% (w/v) test compound
  inhibition of PMA-induced inflammation in mouse ear: marked inhibition
[2]
  inhibition of MDA-MB-231 cell growth: marked inhibition
[3]; RAW264.7, Concentration 1 μM, PMA-Stimulated Mouse Macrophages, read-out: % Inhibition of Respiratory Burst
  inhibition at 1 µM: 45%
[3]; RAW264.7, Concentration 3 μM, PMA-Stimulated Mouse Macrophages, read-out: % Inhibition of Respiratory Burst
  inhibition at 3 µM: 90%
[3]; RAW264.7, Concentration 10 μM, PMA-Stimulated Mouse Macrophages, read-out: % Inhibition of Respiratory Burst
  inhibition at 10 µM: 98%
[3]; RAW264.7, Concentration 30 μM, PMA-Stimulated Mouse Macrophages, read-out: % Inhibition of Respiratory Burst
  inhibition at 30 µM: 99%
[3]; at concentrations above 1 μM, PMA-stimulated
  inhibition of luminescence: marked inhibition
[4]
  inhibition of keratinocyte proliferation: marked inhibition
[5]
  inhibition of HT-29 cell growth: marked inhibition

## C=C1CC[C@H](O)C/C1=C/C=C1\CCC[C@]2(C)[C@@H]([C@H](C)CCCC(C)C)CC[C@@H]12 [Vitamin D3, 9, 10-secocholesta-5,7,10(19)-trien-3-ol, reference compound]
[3]; [6]
  inhibition at 1 µM: 10%
  inhibition at 3 µM: 9%
  inhibition at 10 µM: 2%
  inhibition at 30 µM: 12%
